Test results reported in patent US6531459B1, “Vitamin D derivatives with phosphorus atoms in the side chains” (Schering Aktiengesellschaft, priority 1997, dated 2003).

Target: T1, vitamin D receptor (Sus scrofa, UniProt A3RGC1)
T1 construct: Receptor-containing protein extract is incubated in a test tube with ^3H-calcitriol; from tissue; host or cells: intestines of juvenile pigs (protein extract)
T1 sequence (A3RGC1 1-427): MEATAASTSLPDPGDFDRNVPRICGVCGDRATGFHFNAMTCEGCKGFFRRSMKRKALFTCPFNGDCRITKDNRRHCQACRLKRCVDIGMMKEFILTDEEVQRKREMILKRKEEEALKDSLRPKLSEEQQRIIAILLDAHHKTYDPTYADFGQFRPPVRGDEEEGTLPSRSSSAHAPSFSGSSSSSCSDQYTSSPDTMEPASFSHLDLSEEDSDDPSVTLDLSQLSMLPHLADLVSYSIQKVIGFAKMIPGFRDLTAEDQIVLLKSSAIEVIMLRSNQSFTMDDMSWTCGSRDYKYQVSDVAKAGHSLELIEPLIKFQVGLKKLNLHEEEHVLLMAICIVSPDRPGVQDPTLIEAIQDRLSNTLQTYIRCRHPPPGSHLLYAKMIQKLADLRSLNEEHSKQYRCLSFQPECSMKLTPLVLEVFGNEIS
Assay: calcitriol-receptor test (competition with 3H-calcitriol)
Format: binding
Settings: concentration of test substance / concentration of calcitriol at 50% competition; pig intestine protein extract, 3H-calcitriol 5×10^−10 mol/l
Description: It is carried out using a protein extract from the intestines of juvenile pigs. […] Then, the samples are centrifuged at 10,000 g for 5 minutes at 4° C. The supernatant is decanted and measured in a β-counter after 1 hour of equilibration in Picofluor 15™.
It is defined as a quotient of the concentrations of the respective test substance and the reference substance, which are necessary for 50% competition:
KF=Concentration of test substance at 50% competition/Concentration of reference substance at 50% competition

Structure (SMILES)	KF (competition factor)
C=C1/C(=C\C=C2/CCC[C@]3(C)[C@@H]([C@H](C)/C=C/C(=O)CP(=O)(OC)OC)CC[C@@H]23)C[C@@H](O)C[C@@H]1O [Compound 5, (5Z,7E,22E)-(1S,3R)-(1,3-Dihydroxy-24-oxo-24a-homo-9,10-secochola-5,7,10(19),22-tetraen-24a-yl)phosphonic acid dimethyl ester]	10
C=C1/C(=C\C=C2/CCC[C@]3(C)[C@@H]([C@H](C)/C=C/C(=O)CP(=O)(OCC)OCC)CC[C@@H]23)C[C@@H](O)C[C@@H]1O [Compound 9, (5Z,7E,22E)-(1S,3R)-(1,3-Dihydroxy-24-oxo-24a-homo-9,10-secochola-5,7,10(19),22-tetraen-24a-yl)phosphonic acid diethyl ester]	10
C=C1/C(=C\C=C2/CCC[C@]3(C)[C@@H]([C@H](C)/C=C/C(=O)CP(=O)(OC(C)C)OC(C)C)CC[C@@H]23)C[C@@H](O)C[C@@H]1O [Compound 13, (5Z,7E,22E)-(1S,3R)-(1,3-Dihydroxy-24-oxo-24a-homo-9,10-secochola-5,7,10(19),22-tetraen-24a-yl)phosphonic acid bis(1-methylethyl)ester]	6
C=C1/C(=C\C=C2/CCC[C@]3(C)[C@@H]([C@H](C)/C=C/C(CP(=O)(OCC)OCC)P(=O)(OCC)OCC)CC[C@@H]23)C[C@@H](O)C[C@@H]1O (stereo partly drawn) [Compound 29, (5Z,7E,22E)-(1S,3R,24ξ)-(1,3-Dihydroxy-24a-homo-9,10-secochola-5,7,10(19),22-tetraene-24,24a-diyl)bis[phosphonic acid diethyl ester]]	10
C=C1C(=CC=C2CCCC3(C)C2CCC3C(C)C=CC(=O)C(C)(C)P(=O)(OCC)OCC)CC(O)CC1O [Compound 53, (5Z,7E,22E)-(1S,3R)-(1,3-Dihydroxy-24-oxo-9,10-secocholesta-5,7,10(19),22-tetraen-25-yl)phosphonic acid diethyl ester]	12
C=C1/C(=C\C=C2/CCC[C@]3(C)[C@@H]([C@H](C)/C=C/C(=O)C(CC)(CC)P(=O)(OCC)OCC)CC[C@@H]23)C[C@@H](O)C[C@@H]1O [Compound 57, (5Z,7E,22E)-(1S,3R)-(1,3-Dihydroxy-26,27-dimethyl-24-oxo-9,10-secocholesta-5,7,10(19),22-tetraen-25-yl)phosphonic acid diethyl ester]	16
C=C1C(=CC=C2CCCC3(C)C2CCC3C(C)C=CC(O)P(=O)(OC(C)C)OC(C)C)CC(O)CC1O [Compound 65b, (5Z,7E,22E)-(1S,3R,24R)-(1,3,24-trihydroxy-9,10-secochola-5,7,10(19),22-tetraen-24-yl)phosphonic acid-bis(1-methylethyl)ester]	10
